# Test results published in patent US20250129092A1, “COMPOUNDS USEFUL IN MODULATION OF AHR SIGNALLING” (JAGUAHR THERAPEUTICS PTE LTD, priority 2021, published 2025).
# What was measured:
# CYP 2D6 = CYP 2D6 (Homo sapiens, UniProt P10635); test: CYP 2D6; type: in vitro ADME
# hERG = hERG (Homo sapiens, UniProt Q12809); test: hERG
# AhR [1] = target: T1, AhR (Homo sapiens, UniProt P35869); test: AhR antagonism in U937 cells (Promega P450-Glo assay); type: cell-based; design: endogenous in cells; host or cells: U937 cells; conditions: CYP1A1 activity readout (Luciferin-CEE), head names VAF347, average, read-out: U937 Antagonist pIC50-VAF347: av. pIC50 (converted)
# T1 sequence (P35869 11-848): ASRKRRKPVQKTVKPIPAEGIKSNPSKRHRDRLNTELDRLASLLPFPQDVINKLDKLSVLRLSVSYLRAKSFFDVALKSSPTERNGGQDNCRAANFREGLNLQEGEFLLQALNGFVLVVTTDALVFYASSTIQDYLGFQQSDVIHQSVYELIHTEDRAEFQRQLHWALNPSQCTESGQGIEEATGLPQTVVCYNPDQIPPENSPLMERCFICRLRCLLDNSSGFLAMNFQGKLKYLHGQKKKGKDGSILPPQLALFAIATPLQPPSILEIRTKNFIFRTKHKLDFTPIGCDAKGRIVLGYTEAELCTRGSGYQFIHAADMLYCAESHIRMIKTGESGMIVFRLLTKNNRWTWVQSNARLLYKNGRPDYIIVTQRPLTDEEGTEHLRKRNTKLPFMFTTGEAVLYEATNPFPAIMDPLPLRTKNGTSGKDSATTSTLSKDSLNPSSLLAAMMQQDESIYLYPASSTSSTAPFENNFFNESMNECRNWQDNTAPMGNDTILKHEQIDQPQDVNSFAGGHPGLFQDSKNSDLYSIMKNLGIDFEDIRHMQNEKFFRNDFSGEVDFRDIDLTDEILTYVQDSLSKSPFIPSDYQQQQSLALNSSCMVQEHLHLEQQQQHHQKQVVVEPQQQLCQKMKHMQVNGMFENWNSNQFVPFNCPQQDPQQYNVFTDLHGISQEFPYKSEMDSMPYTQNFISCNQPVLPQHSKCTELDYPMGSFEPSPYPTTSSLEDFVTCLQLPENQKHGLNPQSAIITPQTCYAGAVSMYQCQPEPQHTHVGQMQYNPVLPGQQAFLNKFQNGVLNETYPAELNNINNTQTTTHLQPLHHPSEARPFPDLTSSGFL
# In short: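 Human U937 histiocytic lymphoma cells were seeded in Ultraculture serum free media (Lonza) at 100,000 cells per well in round bottom 96 well plates and exposed to seven test compound concentrations for 24 hrs at 37° C., ≥85% humidity, 5% CO2. AhR antagonism was measured as CYP1A1 activity. After removing supernatant, Luciferin-CEE ([Final] 83 μM) was added for 3 hrs. Detection reagent stopped the reaction, and luminescence was read 20 minutes later.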
# CYP 1A2 = target: T2, CYP 1A2 (Homo sapiens, UniProt P05177); test: CYP 1A2; type: in vitro ADME
# T2 sequence (P05177 1-516): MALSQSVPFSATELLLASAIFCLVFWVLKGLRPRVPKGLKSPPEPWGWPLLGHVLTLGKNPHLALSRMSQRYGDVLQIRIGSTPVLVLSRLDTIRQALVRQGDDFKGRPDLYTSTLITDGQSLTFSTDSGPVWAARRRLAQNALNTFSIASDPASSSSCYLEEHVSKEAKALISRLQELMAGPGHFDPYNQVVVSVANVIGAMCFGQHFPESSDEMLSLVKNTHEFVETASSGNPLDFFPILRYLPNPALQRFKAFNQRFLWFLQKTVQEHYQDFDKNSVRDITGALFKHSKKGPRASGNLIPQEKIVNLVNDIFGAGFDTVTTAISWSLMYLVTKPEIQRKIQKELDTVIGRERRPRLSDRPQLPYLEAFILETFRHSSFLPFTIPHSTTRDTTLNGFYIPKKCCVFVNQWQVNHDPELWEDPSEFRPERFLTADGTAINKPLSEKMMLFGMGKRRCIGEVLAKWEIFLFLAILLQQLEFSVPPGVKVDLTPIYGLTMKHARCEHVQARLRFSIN
# ChromLogD = type: physicochemical
# CYP 2C9 = CYP 2C9 (Homo sapiens, UniProt P11712); test: CYP 2C9; type: in vitro ADME
# CYP 2C19 = CYP 2C19 (Homo sapiens, UniProt P33261); test: CYP 2C19; type: in vitro ADME
# AhR [2] = target: T1, AhR; test: AhR antagonism in human PBMCs - inhibition of IL-22 release; type: cell-based; design: endogenous in cells; conditions: human PBMCs activated with CD3/CD28 agonist mixture, 72 hrs, IL-22 ELISA; average; read-out: hPBMC Inhibition of CD3/CD28 induced IL-22 release: av. pIC50 (converted)
# In short: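 Human PBMCs (1×10^6 cells/ml, 100,000 per well) activated with CD3/CD28 agonist (TransAct); seven compound concentrations added 1 h later (0.2% DMSO final). After 72 h at 37 °C, IL-22 in medium measured by ELISA.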
# Hepatocytes Clint (Hu) = type: in vitro ADME; conditions: human
# CYP 3A4 = CYP 3A4 (Homo sapiens, UniProt P08684); test: CYP 3A4; type: in vitro ADME
# Kinetic solubility = type: physicochemical; conditions: kinetic from dmso stock
# Hepatocytes Clint (m) = type: in vitro ADME; conditions: mouse
# [3] = Caco-2 permeability / efflux; type: in vitro ADME; conditions: human
# Sequence of CYP 3A4 (P08684 whole entry, species assumed): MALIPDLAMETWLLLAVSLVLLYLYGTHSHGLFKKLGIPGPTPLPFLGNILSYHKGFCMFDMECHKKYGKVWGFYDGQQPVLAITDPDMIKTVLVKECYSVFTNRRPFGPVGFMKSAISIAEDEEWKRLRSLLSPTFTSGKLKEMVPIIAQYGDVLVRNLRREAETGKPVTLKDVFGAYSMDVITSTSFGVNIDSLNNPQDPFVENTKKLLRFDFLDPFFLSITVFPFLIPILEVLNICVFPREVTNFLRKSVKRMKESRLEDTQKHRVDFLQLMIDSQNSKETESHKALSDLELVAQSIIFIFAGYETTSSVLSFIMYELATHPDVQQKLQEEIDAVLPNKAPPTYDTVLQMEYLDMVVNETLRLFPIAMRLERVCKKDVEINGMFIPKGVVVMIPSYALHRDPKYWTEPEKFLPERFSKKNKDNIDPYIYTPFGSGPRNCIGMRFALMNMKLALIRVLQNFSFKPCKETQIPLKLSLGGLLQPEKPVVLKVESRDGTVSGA
# Sequence of CYP 2C9 (P11712 whole entry): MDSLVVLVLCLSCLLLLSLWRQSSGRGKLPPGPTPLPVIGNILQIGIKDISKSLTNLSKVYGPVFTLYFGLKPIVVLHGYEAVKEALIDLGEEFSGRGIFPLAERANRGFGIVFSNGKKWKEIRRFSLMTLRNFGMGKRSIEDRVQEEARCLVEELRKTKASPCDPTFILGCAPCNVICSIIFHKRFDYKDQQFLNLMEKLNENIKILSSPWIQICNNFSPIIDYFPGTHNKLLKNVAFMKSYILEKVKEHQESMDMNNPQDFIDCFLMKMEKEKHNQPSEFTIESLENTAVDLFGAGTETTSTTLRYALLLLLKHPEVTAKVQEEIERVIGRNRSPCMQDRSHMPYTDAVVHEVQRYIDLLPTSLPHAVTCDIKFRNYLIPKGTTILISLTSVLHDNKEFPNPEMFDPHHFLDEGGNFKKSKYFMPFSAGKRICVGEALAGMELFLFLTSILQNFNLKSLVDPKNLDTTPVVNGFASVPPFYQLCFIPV
# Sequence of CYP 2D6 (P10635 whole entry): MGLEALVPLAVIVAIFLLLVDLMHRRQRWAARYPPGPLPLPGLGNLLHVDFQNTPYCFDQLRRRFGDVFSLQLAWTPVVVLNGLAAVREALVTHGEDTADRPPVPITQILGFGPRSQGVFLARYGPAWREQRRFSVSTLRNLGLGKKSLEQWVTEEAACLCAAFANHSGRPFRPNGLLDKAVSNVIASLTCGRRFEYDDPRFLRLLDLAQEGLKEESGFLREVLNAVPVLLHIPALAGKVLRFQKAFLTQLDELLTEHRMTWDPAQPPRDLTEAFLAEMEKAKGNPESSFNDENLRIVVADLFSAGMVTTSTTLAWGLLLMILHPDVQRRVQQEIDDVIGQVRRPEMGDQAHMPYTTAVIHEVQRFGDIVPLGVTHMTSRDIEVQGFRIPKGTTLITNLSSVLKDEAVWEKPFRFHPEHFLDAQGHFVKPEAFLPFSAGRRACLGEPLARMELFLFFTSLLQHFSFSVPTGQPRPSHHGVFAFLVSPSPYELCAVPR
# Sequence of CYP 2C19 (P33261 whole entry): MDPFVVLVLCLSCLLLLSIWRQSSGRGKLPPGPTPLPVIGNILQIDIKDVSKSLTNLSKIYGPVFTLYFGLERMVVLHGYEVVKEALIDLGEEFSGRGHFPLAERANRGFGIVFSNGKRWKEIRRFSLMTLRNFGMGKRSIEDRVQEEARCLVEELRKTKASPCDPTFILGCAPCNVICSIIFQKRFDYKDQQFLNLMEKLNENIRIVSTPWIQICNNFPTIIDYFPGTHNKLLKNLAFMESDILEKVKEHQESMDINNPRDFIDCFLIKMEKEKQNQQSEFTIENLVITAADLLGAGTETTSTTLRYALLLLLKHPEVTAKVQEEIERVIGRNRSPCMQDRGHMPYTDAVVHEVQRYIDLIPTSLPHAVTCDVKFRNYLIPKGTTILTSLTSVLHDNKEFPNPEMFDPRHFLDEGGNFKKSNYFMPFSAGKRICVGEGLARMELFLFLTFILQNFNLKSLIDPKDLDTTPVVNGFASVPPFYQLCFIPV
# Sequence of hERG (Q12809 whole entry): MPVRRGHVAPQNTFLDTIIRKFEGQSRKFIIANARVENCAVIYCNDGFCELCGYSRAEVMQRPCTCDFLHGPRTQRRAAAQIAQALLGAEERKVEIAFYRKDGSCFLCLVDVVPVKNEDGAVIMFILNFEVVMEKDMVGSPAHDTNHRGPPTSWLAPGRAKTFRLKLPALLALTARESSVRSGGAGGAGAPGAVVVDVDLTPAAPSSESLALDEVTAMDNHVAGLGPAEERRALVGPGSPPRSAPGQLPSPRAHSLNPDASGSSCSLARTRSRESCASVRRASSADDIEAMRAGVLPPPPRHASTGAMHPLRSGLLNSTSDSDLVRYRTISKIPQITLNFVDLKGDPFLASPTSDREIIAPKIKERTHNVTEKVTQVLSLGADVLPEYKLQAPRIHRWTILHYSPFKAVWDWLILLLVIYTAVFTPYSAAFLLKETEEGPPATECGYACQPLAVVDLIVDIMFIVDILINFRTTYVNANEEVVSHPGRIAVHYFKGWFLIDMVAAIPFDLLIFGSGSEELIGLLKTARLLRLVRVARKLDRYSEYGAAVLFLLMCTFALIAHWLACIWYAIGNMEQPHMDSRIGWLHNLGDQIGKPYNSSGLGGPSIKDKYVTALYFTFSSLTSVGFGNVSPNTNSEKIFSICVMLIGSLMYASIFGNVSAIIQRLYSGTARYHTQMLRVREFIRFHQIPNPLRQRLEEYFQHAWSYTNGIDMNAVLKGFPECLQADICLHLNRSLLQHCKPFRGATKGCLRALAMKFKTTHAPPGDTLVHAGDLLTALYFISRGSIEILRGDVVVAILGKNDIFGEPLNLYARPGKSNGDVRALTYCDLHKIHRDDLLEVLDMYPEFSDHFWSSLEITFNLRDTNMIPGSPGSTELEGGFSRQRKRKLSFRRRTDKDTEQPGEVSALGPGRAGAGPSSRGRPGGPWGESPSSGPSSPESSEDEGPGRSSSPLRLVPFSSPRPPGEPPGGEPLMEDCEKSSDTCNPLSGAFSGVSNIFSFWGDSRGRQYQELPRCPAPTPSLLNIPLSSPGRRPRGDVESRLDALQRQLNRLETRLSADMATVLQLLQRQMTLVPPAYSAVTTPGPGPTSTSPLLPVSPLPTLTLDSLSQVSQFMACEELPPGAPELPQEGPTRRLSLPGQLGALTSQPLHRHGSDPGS
Compound,IC50 (AhR [1]) [nM],IC50 (AhR [2]) [nM],further results
"O=c1[nH]cccc1-c1nc2c(c(OCCc3c[nH]c4ccccc34)n1)OCCN2 [Example 25, 3-(4-(2-(1H-indol-3-yl)ethoxy)-7,8-dihydro-6H-pyrimido[5,4-b][1,4]oxazin-2-yl)pyridin-2(1H)-one]",2.69,1.7,IC50 (CYP 2D6): 50000 nM; IC50 (hERG): 7300 nM; IC50 (CYP 1A2): 45300 nM; chromatographic logD (ChromLogD): 2.39; IC50 (CYP 2C9): 4700 nM; IC50 (CYP 2C19): 43400 nM; hepatocyte CLint (Hepatocytes Clint (Hu)): 7.1 µL/min/1e6 cells; IC50 (CYP 3A4): 7200 nM; fold difference (3A4/U937) (CYP 3A4; CYP 3A4 versus U937): 1986; solubility kinetic (Kinetic solubility): 119 µM; hepatocyte CLint (Hepatocytes Clint (m)): 115 µL/min/1e6 cells; efflux ratio [3]: 4; Papp A→B ([3]; A to B): 7.16 ×10⁻⁶ cm/s
"O=c1[nH]cc(F)cc1-c1nc2c(c(NCCc3c[nH]c4ccccc34)n1)OCCN2 [Example 66, 3-(4-((2-(1H-indol-3-yl)ethyl)amino)-7,8-dihydro-6H-pyrimido[5,4-b][1,4]oxazin-2-yl)-5-fluoropyridin-2-ol]",1.02,0.324,
"Fc1cncc(-c2nc(NCCc3c[nH]c4ccccc34)c3c(n2)N[C@@H](C(F)(F)F)CO3)c1 [Example 32, (7R)-2-(5-fluoro-3-pyridyl)-N-[2-(1H-indol-3-yl)ethyl]-7-(trifluoromethyl)-7,8-dihydro-6H-pyrimido[5,4-b][1,4]oxazin-4-amine]",2.51,14.5,
"O=c1[nH]cccc1-c1nc2c(c(N[C@@H]3CCc4[nH]c5ccccc5c4C3)n1)OCCN2 [Example 63, 3-[4-[[(3R)-2,3,4,9-tetrahydro-1H-carbazol-3-yl]amino]-7,8-dihydro-6H-pyrimido[5,4-b][1,4]oxazin-2-yl]-1H-pyridin-2-one]",93.3,158,
"Cc1ncc(-c2nc3c(c(N[C@@H]4CCc5[nH]c6ccccc6c5C4)n2)OCC(CN(C)C)N3)s1 (mixture of isomers) [Example 38, 7-[(dimethylamino)methyl]-2-(2-methylthiazol-5-yl)-N-[(3R)-2,3,4,9-tetrahydro-1H-carbazol-3-yl]-7,8-dihydro-6H-pyrimido[5,4-b][1,4]oxazin-4-amine]",66.1,89.1,
"COC[C@@H]1COc2c(NCCc3c[nH]c4ccccc34)nc(-c3ccc(F)cc3)nc2N1 [Example 56, (7R)-2-(4-fluorophenyl)-N-[2-(1H-indol-3-yl)ethyl]-7-(methoxymethyl)-7,8-dihydro-6H-pyrimido[5,4-b][1,4]oxazin-4-amine]",12,18.6,
"Fc1cc(F)cc(-c2nc3c(c(NCCc4c[nH]c5ccccc45)n2)OCCN3)c1 [Example 3, 2-(3,5-difluorophenyl)-N-[2-(1H-indol-3-yl)ethyl]-7,8-dihydro-6H-pyrimido[5,4-b][1,4]oxazin-4-amine]",3.55,3.98,
"c1ccc2c3c([nH]c2c1)CC[C@@H](Nc1nc(-c2nccs2)nc2c1OCCN2)C3 [Example 13, N-[(3R)-2,3,4,9-tetrahydro-1H-carbazol-3-yl]-2-thiazol-2-yl-7,8-dihydro-6H-pyrimido[5,4-b][1,4]oxazin-4-amine]",229,> 1780,
"C[C@H]1CNc2nc(-c3cncc(F)c3)nc(NCCc3c[nH]c4ccccc34)c2O1 [Example 29, (6S)-2-(5-fluoro-3-pyridyl)-N-[2-(1H-indol-3-yl)ethyl]-6-methyl-7,8-dihydro-6H-pyrimido[5,4-b][1,4]oxazin-4-amine]",2.19,3.02,
"COC[C@@H]1COc2c(NCCc3c[nH]c4ccccc34)nc(-c3ccc[nH]c3=O)nc2N1 [Example 26, (R)-3-(4-((2-(1H-indol-3-yl)ethyl)amino)-7-(methoxymethyl)-7,8-dihydro-6H-pyrimido[5,4-b][1,4]oxazin-2-yl)pyridin-2(1H)-one]",4.79,0.724,
"C[C@H]1COc2c(NCCc3c[nH]c4ccccc34)nc(-c3cncc(F)c3)nc2N1 [Example 8, (7S)-2-(5-fluoro-3-pyridyl)-N-[2-(1H-indol-3-yl)ethyl]-7-methyl-7,8-dihydro-6H-pyrimido[5,4-b][1,4]oxazin-4-amine]",1.12,1.05,
"Cc1ncc(-c2nc3c(c(OCCc4c[nH]c5cc(F)ccc45)n2)OCCN3)s1 [Example 24, 4-[2-(6-fluoro-1H-indol-3-yl)ethoxy]-2-(2-methylthiazol-5-yl)-7,8-dihydro-6H-pyrimido[5,4-b][1,4]oxazine]",2.63,2.88,
"COc1ncccc1-c1nc2c(c(NCCc3c[nH]c4ccccc34)n1)OCCN2 [Example 64, N-[2-(1H-indol-3-yl)ethyl]-2-(2-methoxy-3-pyridyl)-7,8-dihydro-6H-pyrimido[5,4-b][1,4]oxazin-4-amine]",61.7,145,
"O=c1[nH]cccc1-c1nc(NCCc2c[nH]c3ccccc23)c2c(n1)N[C@H](CO)CO2 [Example 27, (R)-3-(4-((2-(1H-indol-3-yl)ethyl)amino)-7-(hydroxymethyl)-7,8-dihydro-6H-pyrimido[5,4-b][1,4]oxazin-2-yl)pyridin-2 (1H)-one]",4.9,2.14,
"Fc1cncc(-c2nc3c(c(NCCc4c[nH]c5ccccc45)n2)OCCN3)c1 [Example 1, 2-(5-fluoro-3-pyridyl)-N-[2-(1H-indol-3-yl)ethyl]-7,8-dihydro-6H-pyrimido[5,4-b][1,4]oxazin-4-amine]",0.724,1.91,
"COC[C@@H]1COc2c(NCCc3c[nH]c4ccccc34)nc(-c3cc(F)cc(F)c3)nc2N1 [Example 49, (7R)-2-(3,5-difluorophenyl)-N-[2-(1H-indol-3-yl)ethyl]-7-(methoxymethyl)-7,8-dihydro-6H-pyrimido[5,4-b][1,4]oxazin-4-amine]",3.39,6.92,
